Results from the NIST ThermoML archive (doi:10.1016/j.tca.2012.08.011).

Assay: xn = mol fraction of the nth substance listed
Conditions: 101 kPa, Liquid; for speed of sound: Linear variable-path acoustic interferometer; for mass density: Vibrating tube method

NC1CCCCC1 [cyclohexylamine] + C1CCCCC1
Conditions	mass density [kg/m3]	speed of sound [m/s]
293.15 K, x1 = 0.0545	782.87	1282.7
293.15 K, x1 = 0.1032	786.84	1287.2
293.15 K, x1 = 0.1514	790.9	1291.9
293.15 K, x1 = 0.204	795.42	1298
293.15 K, x1 = 0.2496	799.41	1303.5
293.15 K, x1 = 0.3052	804.34	1310.7
293.15 K, x1 = 0.3467	808.08	1316.6
293.15 K, x1 = 0.3967	812.57	1323.8
293.15 K, x1 = 0.4025	813.08	1324.5
293.15 K, x1 = 0.4478	817.22	1331.2
293.15 K, x1 = 0.4992	821.91	1339.2
293.15 K, x1 = 0.5538	826.9	1348.3
293.15 K, x1 = 0.6495	835.66	1364.5
293.15 K, x1 = 0.6996	840.25	1373.5
293.15 K, x1 = 0.7535	845.15	1383.2
293.15 K, x1 = 0.8071	850.03	1393
293.15 K, x1 = 0.8555	854.41	1402.2
293.15 K, x1 = 0.8959	858.06	1410.1
293.15 K, x1 = 0.9501	862.93	1420.6
293.15 K, x1 = 1	867.39	1430.5
298.15 K, x1 = 0.0545	778.17	1257.9
298.15 K, x1 = 0.1032	782.14	1262.6
298.15 K, x1 = 0.1514	786.2	1267.6
298.15 K, x1 = 0.204	790.73	1273.8
298.15 K, x1 = 0.2496	794.7	1279.4
298.15 K, x1 = 0.3052	799.64	1286.8
298.15 K, x1 = 0.3467	803.36	1293
298.15 K, x1 = 0.3967	807.88	1300.2
298.15 K, x1 = 0.4025	808.4	1300.9
298.15 K, x1 = 0.4478	812.54	1307.8
298.15 K, x1 = 0.4992	817.25	1315.9
298.15 K, x1 = 0.5538	822.24	1325
298.15 K, x1 = 0.6495	831.02	1341.3
298.15 K, x1 = 0.6996	835.61	1350.4
298.15 K, x1 = 0.7535	840.54	1360.5
298.15 K, x1 = 0.8071	845.43	1370.4
298.15 K, x1 = 0.8555	849.81	1379.6
298.15 K, x1 = 0.8959	853.48	1387.7
298.15 K, x1 = 0.9501	858.37	1398.5
298.15 K, x1 = 1	862.85	1408.8
303.15 K, x1 = 0.0545	773.44	1233.6
303.15 K, x1 = 0.1032	777.42	1238.1
303.15 K, x1 = 0.1514	781.48	1243.5
303.15 K, x1 = 0.204	786.03	1249.7
303.15 K, x1 = 0.2496	790.01	1255.4
303.15 K, x1 = 0.3052	794.94	1263.2
303.15 K, x1 = 0.3467	798.67	1269
303.15 K, x1 = 0.3967	803.19	1276.7
303.15 K, x1 = 0.4025	803.71	1277.4
303.15 K, x1 = 0.4478	807.85	1284.4
303.15 K, x1 = 0.4992	812.59	1292.7
303.15 K, x1 = 0.5538	817.57	1301.8
303.15 K, x1 = 0.6495	826.37	1318.5
303.15 K, x1 = 0.6996	830.97	1327.6
303.15 K, x1 = 0.7535	835.93	1337.7
303.15 K, x1 = 0.8071	840.82	1347.9
303.15 K, x1 = 0.8555	845.22	1357.2
303.15 K, x1 = 0.8959	848.9	1365.3
303.15 K, x1 = 0.9501	853.81	1376.5
303.15 K, x1 = 1	858.31	1387.3
308.15 K, x1 = 0.0545	768.69	1209.3
308.15 K, x1 = 0.1032	772.67	1213.9
308.15 K, x1 = 0.1514	776.74	1219.6
308.15 K, x1 = 0.204	781.3	1225.8
308.15 K, x1 = 0.2496	785.28	1231.6
308.15 K, x1 = 0.3052	790.22	1239.7
308.15 K, x1 = 0.3467	793.96	1245.6
308.15 K, x1 = 0.3967	798.48	1253.5
308.15 K, x1 = 0.4025	799.01	1254.4
308.15 K, x1 = 0.4478	803.16	1261.5
308.15 K, x1 = 0.4992	807.91	1269.9
308.15 K, x1 = 0.5538	812.89	1279
308.15 K, x1 = 0.6495	821.73	1295.7
308.15 K, x1 = 0.6996	826.34	1305
308.15 K, x1 = 0.7535	831.31	1315.5
308.15 K, x1 = 0.8071	836.22	1325.6
308.15 K, x1 = 0.8555	840.63	1334.9
308.15 K, x1 = 0.8959	844.32	1343.1
308.15 K, x1 = 0.9501	849.24	1354.7
308.15 K, x1 = 1	853.76	1366
313.15 K, x1 = 0.0545	763.91	1185.5
313.15 K, x1 = 0.1032	767.89	1189.8
313.15 K, x1 = 0.1514	771.98	1195.5
313.15 K, x1 = 0.204	776.54	1202
313.15 K, x1 = 0.2496	780.53	1207.9
313.15 K, x1 = 0.3052	785.49	1216.3
313.15 K, x1 = 0.3467	789.24	1222.2
313.15 K, x1 = 0.3967	793.77	1230.3
313.15 K, x1 = 0.4025	794.29	1231
313.15 K, x1 = 0.4478	798.45	1238.5
313.15 K, x1 = 0.4992	803.21	1247
313.15 K, x1 = 0.5538	808.21	1256.3
313.15 K, x1 = 0.6495	817.07	1273.3
313.15 K, x1 = 0.6996	821.7	1282.6
313.15 K, x1 = 0.7535	826.67	1292.9
313.15 K, x1 = 0.8071	831.61	1303.4
313.15 K, x1 = 0.8555	836.02	1312.8
313.15 K, x1 = 0.8959	839.74	1321.1
313.15 K, x1 = 0.9501	844.68	1332.8
313.15 K, x1 = 1	849.23	1344.5
318.15 K, x1 = 0.0545	759.09	1162.1
318.15 K, x1 = 0.1032	763.09	1166.2
318.15 K, x1 = 0.1514	767.19	1171.9
318.15 K, x1 = 0.204	771.77	1178.7
318.15 K, x1 = 0.2496	775.77	1184.7
318.15 K, x1 = 0.3052	780.74	1193.1
318.15 K, x1 = 0.3467	784.5	1199.2
318.15 K, x1 = 0.3967	789.02	1207.3
318.15 K, x1 = 0.4025	789.56	1208.2
318.15 K, x1 = 0.4478	793.71	1215.8
318.15 K, x1 = 0.4992	798.49	1224.5
318.15 K, x1 = 0.5538	803.51	1233.9
318.15 K, x1 = 0.6495	812.4	1251.1
318.15 K, x1 = 0.6996	817.05	1260.4
318.15 K, x1 = 0.7535	822.04	1270.9
318.15 K, x1 = 0.8071	827	1281.5
318.15 K, x1 = 0.8555	831.42	1290.9
318.15 K, x1 = 0.8959	835.15	1299.2
318.15 K, x1 = 0.9501	840.12	1311.1
318.15 K, x1 = 1	844.68	1323.1
323.15 K, x1 = 0.0545	754.26	1138.5
323.15 K, x1 = 0.1032	758.27	1142.7
323.15 K, x1 = 0.1514	762.37	1148.4
323.15 K, x1 = 0.204	766.97	1155.2
323.15 K, x1 = 0.2496	770.99	1161.4
323.15 K, x1 = 0.3052	775.97	1169.9
323.15 K, x1 = 0.3467	779.75	1176.2
323.15 K, x1 = 0.3967	784.29	1184.5
323.15 K, x1 = 0.4025	784.82	1185.4
323.15 K, x1 = 0.4478	788.97	1193.2
323.15 K, x1 = 0.4992	793.75	1202
323.15 K, x1 = 0.5538	798.79	1211.6
323.15 K, x1 = 0.6495	807.72	1228.8
323.15 K, x1 = 0.6996	812.4	1238.3
323.15 K, x1 = 0.7535	817.4	1248.9
323.15 K, x1 = 0.8071	822.37	1259.4
323.15 K, x1 = 0.8555	826.82	1269.2
323.15 K, x1 = 0.8959	830.56	1277.6
323.15 K, x1 = 0.9501	835.56	1289.6
323.15 K, x1 = 1	840.14	1301.8
